{"source": "patent US20110021517A1", "about": "“ANTITUMOR COMBINATION COMPRISING A MORPHOLINYL ANTHRACYCLINE DERIVATIVE AND DEMETHYLATING AGENTS” (NERVIANO MEDICAL SCIENCES S.R.L., priority 2008, published 2011)", "key": {"[1]": {"test_system": "L1210 cells", "test": "Cytotoxic effect of nemorubicin on L1210 cells with or without pre-treatment with 5-aza-2′-deoxycytidine (cell counting, Coulter Counter)", "assay_type": "cell-based, murine", "conditions": "for IC50: 24 h nemorubicin treatment, read-out: IC50 (dose inhibiting 50% cell growth)", "description": "(§1) The effect of 5-aza-2′-deoxycytidine on the cytotoxic activity of morpholinyl anthracycline derivative (nemorubicin) was tested on a murine leukaemia cell line (L1210 cells). Cells were grown in RPMI 1640 medium supplemented with 10% foetal calf serum. Exponentially growing cells were seeded and exposed to 5-aza-2′-deoxycytidine immediately after seeding for 6 days, so as to allow efficient demethylation of the CpG islands. […] Six days following 5-aza-2′-deoxycytidine treatment, cells were diluted and treated with different concentrations of nemorubicin (50, 100, 200 and 500 nM) in comparison with cells not pretreated with the demethylating agent 5-aza-2′-deoxycytidine. In vitro drug sensitivity was determined by counting surviving cells by a Coulter Counter apparatus. The antiproliferative activity of the drug was evaluated after 24 h treatment and calculated from dose-response curves and expressed as dose inhibiting 50% cell growth (IC50). IC50 values were calculated from two-three independent experiments each consisting of at least three replicates. Combination indices (CI) were calculated using a computer program for multiple drug effect analysis based on the equation of Chou-Talalay (Adv Enzyme Regul 1984; 22:27-55) for mutually non-exclusive drugs. CI values <0.3-0.8 are indicative of synergism, 0.8-1.2 are indicative of additivity, […] are indicative of antagonism."}, "[2]": {"test_system": "L1210/MMRDX cells", "test": "Cytotoxic effect of nemorubicin on nemorubicin-resistant L1210/MMRDX cells with or without pre-treatment with 5-aza-2′-deoxycytidine", "assay_type": "cell-based, murine", "conditions": "for IC50: 24 h nemorubicin treatment, read-out: IC50 (dose inhibiting 50% cell growth)", "description": "as §1\nThe effect of 5-aza-2′-deoxycytidine on the cytotoxic activity of nemorubicin was tested in comparison on L1210 cells and on the strain resistant to nemorubicin (L1210/MMRDX) (Geroni C. et al, Br J Cancer 9:315-19, 1994). Cells were grown in RPMI 1640 medium supplemented with 10% foetal calf serum. Exponentially growing cells were seeded and exposed to 5-aza-2′-deoxycytidine and nemorubicin as reported here above. In vitro drug sensitivity was determined by counting surviving cells by a Coulter Counter apparatus. The antiproliferative activity of the drug was evaluated after 24 h treatment and calculated from dose-response curves and expressed as IC50. IC50 values were calculated from two-three independent experiments each consisting of at least three replicates. Combination indices (CI) were calculated as described above."}}, "note": "Where two headings read alike, the source gives them in different places.", "data": [{"substance": "(8S-cis, 2″S)-7,8,9,10-tetrahydro-6,8,11-trihydroxy-8-(hydroxyacetyl)-1-methoxy-10-{[2,3,6-trideoxy-3-(2-methoxy-4-morpholinyl)-α-L-lyxo-hexopyranosyl]oxy}-5,12-naphthacenedione [nemorubicin]", "values": [{"measurement": "IC50", "setting": "[1]; L1210 cells pretreated with 5-aza-2′-deoxycytidine for 6 days", "value": 130, "unit": "nM"}, {"measurement": "IC50", "setting": "[1]; L1210 cells untreated (no 5-aza-2′-deoxycytidine pretreatment)", "value": 210, "unit": "nM"}, {"measurement": "Combination effect based on CI value (in words)", "setting": "[1]; combination of nemorubicin and 5-aza-2′-deoxycytidine, L1210 cells", "value": "synergistic effect"}, {"measurement": "CI (combination index, Chou-Talalay)", "setting": "[1]; nemorubicin combined with 5-aza-2′-deoxycytidine pretreatment, L1210 cells", "value": 0.14}, {"measurement": "IC50", "setting": "[2]; L1210/MMRDX cells pretreated with 5-aza-2′-deoxycytidine", "value": 140, "unit": "nM"}, {"measurement": "IC50", "setting": "[2]; L1210/MMRDX cells untreated (no 5-aza-2′-deoxycytidine pretreatment)", "value": 480, "unit": "nM"}, {"measurement": "Combination effect based on CI value (in words)", "setting": "[2]; combination of nemorubicin and 5-aza-2′-deoxycytidine, L1210/MMRDX cells", "value": "strong synergistic effect"}, {"measurement": "CI (combination index, Chou-Talalay)", "setting": "[2]; nemorubicin combined with 5-aza-2′-deoxycytidine pretreatment, L1210/MMRDX cells", "value": 0.06}]}]}
